Measurements from US4562287A, “2-(4-Biphenylyl)-4-hexenoic acid and derivatives thereof having anti-inflammatory activity” (priority 1983, dated 1985).

Assays:
[1] = tested on: Carragenine edema; assay: Edema induced by different substances: carragenine (Table 3); type: in vivo
From the text: (§1) |Edema induced by different substances.

[2] = tested on: Kaolin edema; assay: Edema induced by different substances: kaolin (Table 3); type: in vivo
From the text: as §1

[3] = tested on: Yeast edema; assay: Edema induced by different substances: yeast (Table 3); type: in vivo
From the text: |Edema induced by different substances. | % edema inhibition

[4] = tested on: Serotonin edema; assay: Edema induced by different substances: serotonin (Table 3); type: in vivo
From the text: as §1

[5] = tested on: Dextrose edema; assay: Edema induced by different substances: dextrose (Table 3); type: in vivo
From the text: as §1

[6] = tested on: capillary permeability (Histamine); assay: Effect on the capillary permeability, histamine; type: in vivo; details: 200 mg/Kg p.o., checks 21.33, 200 mg/kg
From the text: (§2) |Effect on the capillary permeability

[7] = tested on: capillary permeability (Dextran); assay: Effect on the capillary permeability, dextran; type: in vivo; details: 200 mg/Kg p.o., checks 14.83, 200 mg/kg
From the text: as §2

[8] = tested on: Cotton-pellets induced granuloma; assay: Cotton-pellets induced granuloma; type: in vivo; details: 200 mg/Kg p.o.
From the text: | Cotton-pellets induced granuloma.

[9] = tested on: capillary permeability (Serotonin); details: 200 mg/Kg p.o., checks 18.16
[10] = tested on: Carragenine induced edema; assay: Anti-inflammatory activity on carragenine induced edema (Table 11); type: in vivo; details: for % inhibition: 50 mg/Kg p.o.
[11] = tested on: ulcerogenic effect; assay: Ulcerogenic effect; type: in vivo; details: dose 50 mg
[12] = in vivo; details: po, rat, p.o., read-out: DL50 (the source's name)
[13] = tested on: Carragenine induced edema; assay: Activity on carragenine induced edema (Table 9); type: in vivo
From the text: |Activity on carragenine induced edema.

CC=CCC(C(=O)O)c1ccc(-c2ccccc2)cc1 (single isomer, unassigned; (-)) [SCR 156, (-) 2-(4-biphenylyl)-4-hexenoic acid]
% edema inhibition ([1]; 50 mg/Kg p.o., 50 mg/kg): 9%
% edema inhibition ([1]; 100 mg/Kg p.o., 100 mg/kg): 31%
% edema inhibition ([1]; 200 mg/Kg p.o., 200 mg/kg): 23%
% edema inhibition ([2]; 50 mg/Kg p.o., 50 mg/kg): 32%
% edema inhibition ([2]; 100 mg/Kg p.o., 100 mg/kg): 26%
% edema inhibition ([2]; 200 mg/Kg p.o., 200 mg/kg): 28%
% edema inhibition ([3]; 50 mg/Kg p.o.): 13%
% edema inhibition ([3]; 100 mg/Kg p.o., 100 mg/kg): 5%
% edema inhibition ([3]; 200 mg/Kg p.o., 200 mg/kg): 7%
% edema inhibition ([4]; 50 mg/Kg p.o., 50 mg/kg): 0%
% edema inhibition ([4]; 100 mg/Kg p.o., 100 mg/kg): 13%
% edema inhibition ([4]; 200 mg/Kg p.o., 200 mg/kg): 0%
% edema inhibition ([5]; 50 mg/Kg p.o., 50 mg/kg): 14%
% edema inhibition ([5]; 100 mg/Kg p.o., 100 mg/kg): 5%
% edema inhibition ([5]; 200 mg/Kg p.o., 200 mg/kg): 12%
Effect on the capillary permeability, .0. m.micron [6]: 21.00 m.micron
Effect on the capillary permeability, .0. m.micron [7]: 13.58 m.micron
% inhibition [8]: 11%
Effect on the capillary permeability, .0. m.micron [9]: 16.43 m.micron

CC=CCC(C(=O)O)c1ccc(-c2ccccc2)cc1 (single isomer, unassigned; (+)) [SCR 152, (+) 2-(4-biphenylyl)-4-hexenoic acid]
% edema inhibition ([1]; 50 mg/Kg p.o., 50 mg/kg): 54%
% edema inhibition ([1]; 100 mg/Kg p.o., 100 mg/kg): 52%
% edema inhibition ([1]; 200 mg/Kg p.o., 200 mg/kg): 66%
% edema inhibition ([2]; 50 mg/Kg p.o., 50 mg/kg): 19%
% edema inhibition ([2]; 100 mg/Kg p.o., 100 mg/kg): 40%
% edema inhibition ([2]; 200 mg/Kg p.o., 200 mg/kg): 40%
% edema inhibition ([3]; 50 mg/Kg p.o.): 13%
% edema inhibition ([3]; 100 mg/Kg p.o., 100 mg/kg): 25%
% edema inhibition ([3]; 200 mg/Kg p.o., 200 mg/kg): 17%
% edema inhibition ([4]; 50 mg/Kg p.o., 50 mg/kg): 3%
% edema inhibition ([4]; 100 mg/Kg p.o., 100 mg/kg): 3%
% edema inhibition ([4]; 200 mg/Kg p.o., 200 mg/kg): 17%
% edema inhibition ([5]; 50 mg/Kg p.o., 50 mg/kg): 12%
% edema inhibition ([5]; 100 mg/Kg p.o., 100 mg/kg): 39%
% edema inhibition ([5]; 200 mg/Kg p.o., 200 mg/kg): 45%
Effect on the capillary permeability, .0. m.micron [6]: 21.57 m.micron
Effect on the capillary permeability, .0. m.micron [7]: 8.00 m.micron
% inhibition [8]: 12%
% inhibition [10]: 31%
anti-inflammatory effect (in words) ([10]; dose of 50 mg): rather good anti-inflammatory effect
ulcerogenic effect [11]: exhibits none ulcerogenic effect
Effect on the capillary permeability, .0. m.micron [9]: 17.71 m.micron

CC=CCC(C(=O)O)c1ccc(-c2ccc(Cl)cc2)cc1 (racemic) [SCR 158, 2-[4-biphenylyl-(4' chloro)]4-hexenoic acid]
LD50 [12]: 940 mg/kg
Inhibition % ([13]; 56 mg/Kg p.o.): 0%
Inhibition % ([13]; 85 mg/Kg p.o.): 16%
Inhibition % ([13]; 127 mg/Kg p.o.): 14%

CCCCC1C(=O)N(c2ccccc2)N(c2ccc(O)cc2)C1=O (centres unmarked) [Oxyphenbutazone, reference compound]
% inhibition [8]: 24%
% inhibition [10]: 41%
